Data set [1] concerns E. coli ML35p. The data set is described as follows: Simultaneous outer and inner membrane permeation (nitrocefin / ONPG). Format: cell-based, Escherichia coli. As to conditions: 3.1 µM. The source says: To confirm the mechanism of action, we also performed membrane permeation using a reporter strain of E. coli ML35p. This strain enabled simultaneous monitoring of membrane permeation of both the inner and outer membranes of Gram-negative bacterium E. coli. Both WW295 and WW298 were included in the experiment. […] This is indicated by the sharp development of absorbance at 490 nm for nitrocefin (panel A) and at 420 nm for ONPG (panel B).
The E. coli ML-35p strain was utilized to probe the permeation of both the outer membrane (OM) and inner membrane (IM). This strain was engineered to have two membrane reporters. Nitrocefin is used for detection of OM permeabilization. Nitrocefin is excluded from the periplasm. […] The chromogenic cleavage product was spectrophotometrically monitored at 490 nm. […] However, permeabilization of the IM helps ONPG to enter cytoplasm and get cleaved by cytoplasmic β-galactosidase into o-nitrophenol, which can be detected spectrophotometrically at 420 nm. […] Absorbances at both 490 and at 420 nm were monitored using FLUOstar Omega (BMG, Labtech, NC, USA) simultaneously. After shaking at 100 rpm, readings were taken every 2 min for a total of 40 min at 37 °C. Data were analyzed using the MARS data analysis software provided by the manufacturer and representative plots were made using the GraphPad Prism 7 software.

Data set [2] has as its system S. aureus USA300 LAC. Description: Membrane depolarization, DiBAC4(3). Format: cell-based, Staphylococcus aureus. As to conditions: 12.5 µM. On the procedure: Bacteria surfaces are negative and cationic peptides are able to neutralize the negative charge, thereby reducing membrane potential. To test this possibility, we evaluated the peptides against S. aureus USA300 LAC using a fluorescent indicator dye, the DiBAC4(3) (Figure 5).
The overnight culture of S. aureus USA300 LAC was grown in TSB media to the exponential phase. Cells were then pelleted and washed with PBS twice, and re-suspended in twice the volume of PBS containing 25 mM glucose for 15 min at 37 °C. For membrane depolarization measurements, 250 nM (final concentration) of the dye DiBAC4(3) (bis-(1,3-dibutylbarbituric acid) trimethine oxonol (ANASPEC, Fremont, CA, USA) was added, and vortexed gently. Ninety microliters of the energized bacteria solution were then added in a 96-well microtiter plate (Corning COSTAR). The plate was immediately placed into a FLUOstar Omega (BMG LABTECH Inc., Cary, NC, USA) microplate reader and fluorescence was measured for 20 min. Once the readings are stabilized, 10 μL of peptide solution were added and the fluorescence readings were continued for another 40 min. Measurements were done at an excitation and emission wavelengths of 485 and 520 nm, respectively. Triton X-100 (0.1%) was included as a positive control.

In data set [3] the test system is S. aureus USA300 LAC. The data set is described as follows: Inhibition of biofilm attachment (XTT). As to conditions: 12.5 µM; 1 h, XTT. Format: cell-based, Staphylococcus aureus. The source says: Antimicrobial effects of the peptides are different on diverse forms of bacteria. The free and motile forms cultivated in laboratories are the planktonic bacteria onto which the peptides and antibiotics can have direct effects. However, the activity of the microbicides can be reduced to the biofilm forms where bacteria are less exposed and hidden inside the shield. The development of the biofilms starts with the attachment of the individual cells on the substratum followed by biofilm growth and maturation into more solid biomass. We tested the ability of WW295 and WW298 in fighting the biofilms of S. aureus USA300 LAC at the two stages. […] These 96-well commercial plates were pre-treated commercially with tissue culture to enhance cell adhesion.
This experiment was performed to measure the ability of the peptide to inhibit bacterial attachment, the initial step for biofilm formation. In short, an overnight culture of S. aureus USA300 was grown in TSB media to an optical density (600 nm) of ∼1.0. […] Live cells in the biofilms were then quantitated using XTT [2,3-bis(2-methyloxy-4-nitro-5-sulfophenyl)-2H-tertazolium-5-carboxanilide] assay by following the manufacturer’s instructions with modifications. […] Absorbance at 450 nm (only media with XTT containing wells served as the blank) was obtained using a Chromate^TM microtiter plate reader. […]
Background: Tetrazolium assays rely on reduction of a dye to a coloured formazan, in cell work by metabolically active cells.

For data set [4], the system named is S. aureus USA300 LAC. Description: Disruption of 24 h established biofilms (XTT). As to conditions: 24 h treatment. The class given is cell-based, Staphylococcus aureus. The method, then: We also compared the effects of the peptides on established biofilms (24 h). […] When cells are alive (in the absence of peptide), the cell-permeant calcein-AM dye could enter the cells and gave green color as a consequence of the removal of acetoxymethyl (AM) esters by intracellular esterase (Figure 7A). When the cells were dead due to membrane damage by the peptide, the red dye ethidium homodimer (non-membrane permeable) could enter the cell and become red by binding to nucleic acids (Figure 7B).
The antibiofilm activity of the peptide against 24 h established biofilms was evaluated as previously described. In short, S. aureus USA300 LAC (10^5 CFU/mL) was made from exponential phase bacteria in TSB media and 180 μL were distributed to each well of the microtiter plate (Corning Costar Cat No. 3595, Amsterdam, The Netherlands). The plates were incubated at 37 °C for 24 h to form a biofilm. Culture treated with water served as a positive control while media without bacterial inoculation served as the negative control. Media were then pipetted out and the attached biofilms were washed with 1× PBS to remove the planktonic bacteria. Each well of the plate was then filled with 20 μL of 10× peptide solution and 180 μL of fresh TSB media and the plates were further incubated at 37 °C for 24 h. Media were then pipetted out and the wells were washed with 1× PBS to remove planktonic cells. The live cells in biofilms were estimated by XTT assay as mentioned above.

Data set [5] concerns P. aeruginosa PAO1. The class given is cell-based, Pseudomonas aeruginosa. As to conditions: PAO1. The method, then: (§1) The antimicrobial activity spectrum of the WW peptide series was performed on a panel of Gram-positive and -negative bacteria using the standard broth micro-dilution method with minor modifications as described. […] There was a small change in the case of Pseudomonas aeruginosa and Acinetobacter baumannii up to two-fold. Four-fold changes were found for Staphylococcus aureus, Staphylococcus epidermidis, Escherichia coli, and Bacillus subtilis. However, we observed over eight-fold MIC changes for Klebsiella pneumoniae and vancomycin-resistant enterococcus (VRE). […] We also observed more than eight-fold changes in minimal bacterial killing concentrations.
(§2) The antibacterial activity of peptides was evaluated using a standard broth microdilution protocol with minor modifications as previously described. In brief, logarithmic phase bacterial cultures (i.e., optical density at 600 nm ≈ 0.5) were diluted to OD600~0.001 and partitioned into a 96-well polystyrene microplate at 90 μL per well. After treatment with 10 μL of peptide solutions two-fold diluted to various concentrations, microplates were incubated at 37 °C overnight and read on a ChroMate 4300 Microplate Reader at 630 nm (GMI, Ramsey, MN). […] Minimal bactericidal concentration (MBC) was determined by plating the clear wells at MIC or above. The peptide concentration that caused no bacterial growth on the petri dish is MBC.

Data set [6] concerns S. aureus USA300. Format: cell-based, Staphylococcus aureus. As to conditions: USA300. On the procedure: as §2
For data set [7], the system named is E. coli K12. Format: cell-based, Escherichia coli. As to conditions: K12. On the procedure:
as §1, §2

In data set [8] the test system is S. aureus USA300 LAC. Format: cell-based, Staphylococcus aureus. To be noted: USA300. On the procedure:
(§3) To gain additional insight, we also compared the effects of physiological saline and human serum on the antibacterial activities of WW291-WW298 using both E. coli and S. aureus (Table 3). In our assays, salts and serum were present during the entire course of the experiment. […] Thus, WW295 and WW298 stand out in terms of activity robustness (bold in Table 3).
as §2

Data set [9] deals with K. pneumonia ATCC 13883. As to conditions: cited from earlier work. The source says:
Table 2 Antibacterial activities of the WW peptides against various bacteria. | column: Minimal Inhibitory Concentration (MIC, μM) / KP ^a

The subject of data set [10] is monkey kidney Vero E6 cells. Format: cell-based. The method, then: Peptides were assayed for potential in vitro toxicity against human keratinocytes (HaCaT) and THP-1 cells as previously described. THP-1 monocytes were differentiated into macrophages by adding 30 ng/mL of phorbol 12-myristate 13-acetate (PMA; Sigma-Aldrich) to RPMI 1640 supplemented with 10% fetal calf serum culture (FCS) medium for 16 h. Briefly, cells were seeded at a density of 3 × 10^4 per well in a tissue culture 96-well plate in DMEM/RPMI supplemented with 10% fetal bovine serum (FBS), and incubated at 37 °C in a 5% CO2 atmosphere for 24 h. African green monkey kidney Vero E6 cells were cultivated in EMEM in the same manner. Before antimicrobial treatment, wells were replaced with serum free media and treated with peptides at different concentrations for one hour. After incubation, the cells were washed and incubated with 100 μL of DMEM media containing 20 μL of 3-(4,5-dimethylthiazol-2-yl)-5-(3-carboxymethoxyphenyl)-2-(4-sulfophenyl)-2H-tetrazolium (MTS) reagent for two hours at 37 °C. […] Absorbance readings at 492 nm were taken using a ChroMate microplate reader (GMI, Ramsey, MN, USA).

The test system of data set [11] is S. aureus Mu50. Format: cell-based, Staphylococcus aureus. As to conditions: Mu50. On the procedure:
as §1, §2

Data set [12] has as its system E. coli ATCC 25922. The class given is cell-based, Escherichia coli. To be noted: ATCC 25922. On the procedure:
as §3, §2

Data set [13] concerns E. faecium VRE. Format: cell-based. As to conditions: VRE. On the procedure:
as §1, §2

The test system of data set [14] is A. baumannii B28-16. Format: cell-based, Acinetobacter baumannii. As to conditions: B28-16. The method, then:
as §1, §2

Data set [15] deals with human red blood cells. The data set is described as follows: Hemolytic assay. The class given is cell-based. To be noted: red cells of human. On the procedure: (§4) Hemolytic assays of peptides were performed as previously described. Briefly, human red blood cells (hRBCs) obtained from UNMC Blood Bank, or chicken or porcine blood cells purchased from commercial sources as previously described, were washed three times with phosphate buffer saline (PBS) and diluted to a 2% solution (V/v). After peptide treatment, incubation at 37 °C for one hour, and centrifugation at 13,000 rpm, aliquots of the supernatant were carefully transferred to a fresh 96-well microplate. The amount of hemoglobin released was measured at 545 nm. The percent lysis was calculated by assuming 100% release when human blood cells were treated with 2% Triton X-100, and 0% release when incubated with PBS buffer. The peptide concentration that caused 50% lysis of hRBCs is defined as HC50.

The subject of data set [16] is chicken red blood cells. Description: Hemolytic assay. The class given is cell-based. The method, then: as §4
The test system of data set [17] is B. subtilis 167. Format: cell-based, Bacillus subtilis. To be noted: 167. On the procedure: as §1, §2

No end group written: not given here. Bounds are passed on as bounds.

Take `CCCCCCCCCC(=O)N[C@@H](Cc1c[nH]c2ccccc12)C(=O)N[C@H](CC(N)=O)C(=O)N[C@@H](CC(=O)O)C(=O)N[C@@H]1C(=O)NCC(=O)N[C@@H](CCCN)C(=O)N[C@@H](CC(=O)O)C(=O)N[C@H](C)C(=O)N[C@@H](CC(=O)O)C(=O)NCC(=O)N[C@H](CO)C(=O)N[C@@H]([C@H](C)CC(=O)O)C(=O)N[C@@H](CC(=O)c2ccccc2N)C(=O)O[C@@H]1C` [daptomycin, reference compound]: the “outer and inner membrane permeation (nitrocefin 490 nm, ONPG 420 nm)” value in [1] is listed as “poor in membrane permeation”. The “membrane depolarization (DiBAC4(3) fluorescence)” value in [2] was “significantly less membrane depolarization”. For the same molecule, in data set [3], the “inhibition of MRSA adherence” value is ~ 50%. In addition, the “disruption of established biofilms (24 h)” value is “much less effective than WW298” in [4] (3.1 µM) and “eradicating almost all the established biofilm” in data set [4] (6.25 µM).

Take WWWLRKIW [WW291]: the “Minimal Inhibitory Concentration (MIC), PA” value in data set [5] worked out at 50 µM. Further, the “MBC, USA300” value in [6] came out at 6.2 µM. The “Minimal Inhibitory Concentration (MIC), EC” value in data set [7] lay within 6.2 to 12.5 µM. Also, in data set [8], the “MIC, +150 mM NaCl” value is 3.1 µM; the “MIC, +10% Human Serum” value is reported as 25 µM; the “MIC, TSB” value was found to be 3.1 µM. Further, the “Minimal Inhibitory Concentration (MIC), KP” value in [9] is 12.5 µM. The “Vero Cells, concentration that caused 50% cell death (LC50)” value in data set [10] came to 100 µM. In addition, the “Minimal Inhibitory Concentration (MIC), SA” value in data set [11] stood at 3.1 µM. Besides, in [12], the “MIC, +150 mM NaCl” value is reported as 12.5 µM; the “MIC, +10% Human Serum” value is on record as more than 25 µM; the “MIC, TSB” value is 6.2 to 12.5 µM. The “Minimal Inhibitory Concentration (MIC), VRE” value in [13] turned out to be 25 µM. For the same molecule, the “Minimal Inhibitory Concentration (MIC), AB” value in data set [14] worked out at 6.25 µM. Moreover, in [15], the “Human RBC, concentration that caused 50% red blood cell lysis (HC50)” value is on record as 30 µM. For the same molecule, in data set [16], the “Chicken RBC, concentration that caused 50% red blood cell lysis (HC50)” value is reported as 50 µM. Moreover, the “Minimal Inhibitory Concentration (MIC), BS” value in data set [17] is 6.25 µM.

The values are drawn from paper PMC7600788, “Sequence Permutation Generates Peptides with Different Antimicrobial and Antibiofilm Activities” (Pharmaceuticals, 2020).
